Data taken from patent US7468376B2, “Pyrazolopyridine derivates” (Palau Pharma, S.A., priority 2003, dated 2008).

Tested on: TNF-α release induced by LPS in human peripheral blood mononuclear cells
Assay: Test 2: Inhibition of TNF-α release induced by LPS in human peripheral blood mononuclear cells
Format: cell-based
Conditions: test product at 0.1 μM, LPS 400 ng/mL, 19 h, TNF-α in supernatant by ELISA; for inhibition at 0.1 µM: Homo sapiens, PBMC
Protocol: Test 2: Inhibition of TNF-α Release Induced by LPS in Human Peripheral Blood Mononuclear Cells
To obtain the mononuclear cells: heparinized venous blood, obtained from healthy volunteers, is diluted with an equal volume of saline phosphate buffer without calcium or magnesium. Aliquots of 30 mL of the mixture are transferred to 50 mL centrifuge tubes containing 15 mL of Ficoll-Hypaque (1.077 g/mL). The tubes are centrifuged at 1200×g for 20 min at room temperature without braking. Approximately two-thirds of the band of platelets lying above the mononuclear cells is removed with a pipette. The mononuclear cells are carefully transferred to a 50 mL tube, washed twice with saline phosphate buffer, centrifuged at 300×g for 10 min at room temperature and resuspended in RPMI supplemented with 1% inactivated fetal bovine serum at a cell density of 2×10^6 cells/mL.
Inhibition of TNF-α release: 100 μL of mononuclear cells (2×10^6 cells/mL) are incubated on 96-well plates with 50 μL of the test product (final concentration, 0.001-10 μM) and 50 μL LPS (E. coli 055B5, Sigma) at a final concentration of 400 ng/mL for 19 h at 37° C. in an atmosphere with CO2 at 5%. The amount of TNF-α released in the supernatant is quantified using a commercial ELISA kit (Biosource International).

| Compound | % Inhibition at 0.1 μM [%] | inhibition at 0.1 µM [%] |
| --- | --- | --- |
| 6-(4-Fluorophenyl)-4-methyl-5-(2-methylsulfanylpyrimidin-4-yl)-1H-pyrazolo[3,4-b]pyridine [Example 237] | 53.4 | – |
| Fc1ccc(-c2nc3[nH]ncc3c(-c3ccc(F)cc3)c2-c2ccncc2)cc1 [Example 1, 4,6-Bis(4-fluorophenyl)-5-(4-pyridyl)-1H-pyrazolo[3,4-b]pyridine] | – | 57.5 |
| Cc1n[nH]c2nc(-c3ccc(F)cc3)c(-c3ccncc3)c(-c3ccc(F)cc3)c12 [Example 4, 4,6-Bis(4-fluorophenyl)-3-methyl-5-(4-pyridyl)-1H-pyrazolo[3,4-b]pyridine] | – | 68.4 |
| CCn1cc2c(-c3ccc(F)cc3)c(-c3ccncc3)c(-c3ccc(F)cc3)nc2n1 [Example 6, 2-Ethyl-4,6-bis(4-fluorophenyl)-5-(4-pyridyl)pyrazolo[3,4-b]pyridine] | – | 81.4 |
| Cn1cc2c(-c3ccc(F)cc3)c(-c3ccncc3)c(-c3ccc(F)cc3)nc2n1 [Example 8, 4,6-Bis(4-fluorophenyl)-2-methyl-5-(4-pyridyl)pyrazolo[3,4-b]pyridine] | – | 66.3 |
| OCCCn1cc2c(-c3ccc(F)cc3)c(-c3ccncc3)c(-c3ccc(F)cc3)nc2n1 [Example 18, 3-[4,6-Bis(4-fluorophenyl)-5-(4-pyridyl)pyrazolo[3,4-b]pirridin-2-yl]propan-1-ol] | 82.6 | – |
| Cn1cc2c(-c3ccccc3)c(-c3ccncc3)c(-c3ccccc3)nc2n1 [Example 22, 2-Methyl-4,6-diphenyl-5-(4-pyridyl)pyrazolo[3,4-b]pyridine] | – | 56.5 |
| Fc1ccc(-c2nc3nn(CCN4CCOCC4)cc3c(-c3ccc(F)cc3)c2-c2ccncc2)cc1 [Example 30, 4,6-Bis(4-fluorophenyl)-2-[2-(morpholin-4-yl)ethyl]-5-(4-pyridyl)pyrazolo[3,4-b]pyridine] | – | 83.6 |
| Fc1ccc(-c2nc3nn(C4CCNCC4)cc3c(-c3ccc(F)cc3)c2-c2ccncc2)cc1 [Example 36, 4,6-Bis(4-fluorophenyl)-2-(4-piperidyl)-5-(4-pyridyl)pyrazolo[3,4-b]pyridine] | – | 92 |
| Fc1ccc(-c2nc3c(cnn3CC3CCNCC3)c(-c3ccc(F)cc3)c2-c2ccncc2)cc1 [Example 39, 4,6-Bis(4-fluorophenyl)-1-(4-piperidylmethyl)-5-(4-pyridyl)pyrazolo[3,4-b]pyridine] | – | 51.1 |
| Cc1c2c(-c3ccc(F)cc3)c(-c3ccncc3)c(-c3ccc(F)cc3)nc2nn1C1CCNCC1 [Example 41, 4,6-Bis(4-fluorophenl)-3-methyl-2-(4-piperidyl)-5-(4-pyridyl)pyrazolo[3,4-b]pyridine] | 90.6 | – |
| Fc1ccc(-c2nc3nn(CCC4CCNCC4)cc3c(-c3ccc(F)cc3)c2-c2ccncc2)cc1 [Example 43, 4,6-Bis(4-fluorophenyl)-2-[2-(4-piperidyl)ethyl]-5-(4-pyridyl)pyrazolo[3,4-b]pyridine] | – | 61.2 |
| C[S+]([O-])c1ccc(-n2cc3c(-c4ccc(F)cc4)c(-c4ccncc4)c(-c4ccc(F)cc4)nc3n2)cc1 (stereo not shown) [Example 56, 4,6-Bis(4-fluorophenyl)-2-(4-methylsulfinylphenyl)-5-(4-pyridyl)pyrazolo[3,4-b]pyridine] | – | 58.7 |
| C[S+]([O-])c1ccc(Cn2cc3c(-c4ccc(F)cc4)c(-c4ccncc4)c(-c4ccc(F)cc4)nc3n2)cc1 (stereo not shown) [Example 59, 4,6-Bis(4-fluorophenyl)-2-(4-methylsulfinylbenzyl)-5-(4-pyridyl)pyrazolo[3,4-b]pyridine] | – | 60 |
| Fc1ccc(-c2nc3[nH]nc(Cl)c3c(-c3ccc(F)cc3)c2-c2ccncc2)cc1 [Example 63, 3-Chloro-4,6-bis(4-fluorophenyl)-5-(4-pyridyl)-1H-pyrazolo[3,4-b]pyridine] | – | 53.2 |
| NCc1n[nH]c2nc(-c3ccc(F)cc3)c(-c3ccncc3)c(-c3ccc(F)cc3)c12 [Example 68, 3-Aminomethyl-4,6-bis(4-fluorophenyl)-5-(4-pyridyl)-1H-pyrazolo[3,4-b]pyridine] | – | 50 |
| Oc1ccc(-c2c(-c3ccncc3)c(-c3ccc(F)cc3)nc3[nH]ncc23)cc1 [Example 72, 4-[6-(4-Fluorophenyl)-5-(4-pyridyl)-1H-pyrazolo[3,4-b]pyridin-4-yl]phenol] | – | 52.7 |

| Compound | % Inhibition at 0.1 μM [%] | inhibition at 0.1 µM [%] |
| --- | --- | --- |
| CNCCCn1cc2c(-c3ccc(F)cc3)c(-c3ccncc3)c(-c3ccc(F)cc3)nc2n1 [Example 78, N-Methyl-[3-[4,6-bis(4-fluorophenyl)-5-(4-pyridyl)pyrazolo[3,4-b]pyridin-2-yl]propyl]amine] | – | 73.3 |
| CN(C)C(=O)Cn1cc2c(-c3ccc(F)cc3)c(-c3ccncc3)c(-c3ccc(F)cc3)nc2n1 [Example 80, 2-[4,6-Bis(4-fluorophenyl)-5-(4-pyridyl)pyrazolo[3,4-b]pyridin-2-yl]-N,N-dimethylacetamide] | – | 69.3 |
| COCCOCCn1cc2c(-c3ccc(F)cc3)c(-c3ccncc3)c(-c3ccc(F)cc3)nc2n1 [Example 82, 4,6-Bis(4-fluorophenyl)-2-[2-(2-methoxyethoxy)ethyl]-5-(4-pyridyl)pyrazolo[3,4-b]pyridine] | – | 59.9 |
| Fc1ccc(-c2nc3nn(Cc4cccnc4)cc3c(-c3ccc(F)cc3)c2-c2ccncc2)cc1 [Example 102, 4,6-Bis(4-fluorophenyl)-5-(4pyridyl)-2-(3-pyridylmethyl)pyrazolo[3,4-b]pyridine] | – | 67.9 |
| OC1CCN(CCn2cc3c(-c4ccc(F)cc4)c(-c4ccncc4)c(-c4ccc(F)cc4)nc3n2)CC1 [Example 106, 1-[2-[4,6-Bis(4-fluorophenyl)-5-(4-pyridyl)pyrazolo[3,4-b]pyridin-2-yl]ethyl]piperidin-4-ol] | – | 69.3 |
| Fc1ccc(-c2nc3nn(C4CCNCC4)cc3cc2-c2ccncc2)cc1 [Example 121, 6-(4-Fluorophenyl)-2-(4-piperidyl)-5-(4-pyridyl)pyrazolo[3,4-b]pyridine] | – | 52.1 |
| C[C@H](Nc1nccc(-c2cc3cn[nH]c3nc2-c2cccc(C(F)(F)F)c2)n1)c1ccccc1 [Example 128, (1S)-N-(1-Phenylethyl)-[4-[6-[3-(trifluoromethyl)phenyl]-1H-pyrazolo[3,4-b]pyridin-5-yl]pyrimidin-2-yl]amine] | – | 82 |
| CC(=O)N1CCN(CCn2cc3c(-c4ccc(F)cc4)c(-c4ccncc4)c(-c4ccc(F)cc4)nc3n2)CC1 [Example 136, 1-[4-[2-[4,6-Bis(4-fluorophenyl)-5-(4-pyridyl)pyrazolo[3,4-b]pyridin-2-yl]ethyl]piperazin-1-yl]ethanone] | – | 67 |
| OCCCn1cc2c(-c3ccccc3)c(-c3ccncc3)c(-c3ccccc3)nc2n1 [Example 137, 3-[4,6-Diphenyl-5-(4-pyridyl)pyrazolo[3,4-b]pyridin-2-yl]propan-1-ol] | – | 61.4 |
| Cn1cc2c(-c3ccco3)c(-c3ccncc3)c(-c3ccc(F)cc3)nc2n1 [Example 183, 6-(4-Fluorophenyl)-4-(2-furyl)-2-methyl-5-(4-pyridyl)pyrazolo[3,4-b]pyridine] | – | 66.7 |
| Cn1cnc(-c2c(-c3ccncc3)c(-c3ccc(F)cc3)nc3nn(C)cc23)c1 [Example 184, 6-(4-Fluorophenyl)-2-methyl-4-(1-methyl-1H-imidazol-4-yl)-5-(4-pyridyl)pyrazolo[3,4-b]pyridine] | – | 71.2 |
| Cn1cc2c(-c3ccc(Br)s3)c(-c3ccncc3)c(-c3ccc(F)cc3)nc2n1 [Example 188, 4-(5-Bromothien-2-yl)-6-(4-fluoro-phenyl)-2-methyl-5-(4-pyridyl)-1H-pyrazolo[3,4-b]pyridine] | 73.2 | – |
| OCCn1cc2c(-c3ccccc3)c(-c3ccncc3)c(-c3ccccc3)nc2n1 [Example 196, 2-[4,6-Diphenyl-5-(4-pyridyl)pyrazolo-[3,4-b]pyridin-2-yl]ethanol] | – | 70.2 |
| FC(F)(F)c1cccc(-c2nc3[nH]ncc3cc2-c2ccnc(NCC3CC3)n2)c1 [Example 208, N-Cyclopropylmethyl-[4-[6-[3-(trifluoromethyl)phenyl]-1H-pyrazolo[3,4-b]pyridin-5-yl]pyrimidin-2-yl]amine] | – | 67.7 |
| C[C@H](Nc1nccc(-c2cc3cn(CCCO)nc3nc2-c2cccc(C(F)(F)F)c2)n1)c1ccccc1 [Example 209, (1S)-3-[5-[2-(1-Phenylethylamino)-pyrimidin-4-yl]-6-(3-trifluoromethylphenyl)pyrazolo[3,4-b]pyridin-2-yl]propan-1-ol] | – | 84.2 |
| Cn1cc2cc(-c3ccnc(NCC4CC4)n3)c(-c3ccc(F)cc3)nc2n1 [Example 210, N-Cyclopropylmethyl-[4-[6-(4-fluorophenyl)-2-methylpyrazolo[3,4-b]pyridin-5-yl]pyrimidin-2-yl]amine] | – | 57.3 |
| OCCn1cc2cc(-c3ccnc(NCC4CC4)n3)c(-c3ccc(F)cc3)nc2n1 [Example 211, 2-[5-[2-[(Cyclopropylmethyl)-amino]pyrimidin-4-yl]-6-(4-fluorophenyl)pyrazolo[3,4-b]pyridin-2-yl]ethanol] | – | 70.6 |
